Reference: a compilation of properties of binary mixtures (doi:10.1016/j.jct.2016.03.014)

Assay: xn = mol fraction of the nth substance listed
Details: 101.3 kPa

CC[n+]1ccn(C)c1.O=S(=O)([O-])C(F)(F)F + CCCCCO
speed of sound (298.15 K, x2 = 0): 1435.8 m/s
speed of sound (298.15 K, x2 = 0.0507): 1431.8 m/s
speed of sound (298.15 K, x2 = 0.108): 1423.1 m/s
speed of sound (298.15 K, x2 = 0.2365): 1395.2 m/s
speed of sound (298.15 K, x2 = 0.3297): 1373.9 m/s
speed of sound (298.15 K, x2 = 0.4357): 1348.1 m/s
speed of sound (298.15 K, x2 = 0.5702): 1317.4 m/s
speed of sound (298.15 K, x2 = 0.5941): 1312 m/s
speed of sound (298.15 K, x2 = 0.7208): 1287.9 m/s
speed of sound (298.15 K, x2 = 0.8515): 1273.4 m/s
speed of sound (298.15 K, x2 = 0.8998): 1271.4 m/s
speed of sound (298.15 K, x2 = 0.9479): 1271.7 m/s
speed of sound (308.15 K, x2 = 0): 1413.5 m/s
speed of sound (308.15 K, x2 = 0.0507): 1409.5 m/s
speed of sound (308.15 K, x2 = 0.108): 1400.8 m/s
speed of sound (308.15 K, x2 = 0.1716): 1387.5 m/s
speed of sound (308.15 K, x2 = 0.3297): 1350.8 m/s
speed of sound (308.15 K, x2 = 0.5702): 1292.8 m/s
speed of sound (308.15 K, x2 = 0.5941): 1287.2 m/s
speed of sound (308.15 K, x2 = 0.7208): 1261.6 m/s
speed of sound (308.15 K, x2 = 0.8085): 1249.1 m/s
speed of sound (308.15 K, x2 = 0.8515): 1244.7 m/s
speed of sound (308.15 K, x2 = 0.8998): 1241.4 m/s
speed of sound (308.15 K, x2 = 0.9479): 1240.2 m/s
speed of sound (318.15 K, x2 = 0.108): 1378.7 m/s
speed of sound (318.15 K, x2 = 0.1716): 1365.4 m/s
speed of sound (318.15 K, x2 = 0.2365): 1350.1 m/s
speed of sound (318.15 K, x2 = 0.3297): 1328 m/s
speed of sound (318.15 K, x2 = 0.4357): 1301.1 m/s
speed of sound (318.15 K, x2 = 0.5702): 1268.5 m/s
speed of sound (318.15 K, x2 = 0.5941): 1262.7 m/s
speed of sound (318.15 K, x2 = 0.8085): 1221.4 m/s
speed of sound (318.15 K, x2 = 0.8515): 1216.1 m/s
speed of sound (318.15 K, x2 = 0.8998): 1211.5 m/s
speed of sound (328.15 K, x2 = 0): 1369.8 m/s
speed of sound (328.15 K, x2 = 0.108): 1357.1 m/s
speed of sound (328.15 K, x2 = 0.2365): 1328.1 m/s
speed of sound (328.15 K, x2 = 0.3297): 1305.7 m/s
speed of sound (328.15 K, x2 = 0.4357): 1278.1 m/s
speed of sound (328.15 K, x2 = 0.5702): 1244.5 m/s
speed of sound (328.15 K, x2 = 0.5941): 1238.5 m/s
speed of sound (328.15 K, x2 = 0.8085): 1194 m/s
speed of sound (328.15 K, x2 = 0.8515): 1187.7 m/s
speed of sound (328.15 K, x2 = 0.8998): 1181.9 m/s
speed of sound (328.15 K, x2 = 0.9479): 1177.7 m/s

CCCCCO + CC[n+]1ccn(C)c1.O=S(=O)([O-])C(F)(F)F
speed of sound (298.15 K, x1 = 1): 1274.9 m/s
speed of sound (308.15 K, x1 = 1): 1241.4 m/s
speed of sound (328.15 K, x1 = 1): 1175.3 m/s
